Earlier results as cited in US10779561B2, “Resveratrol solubility” (AQUANOVA AG, priority 2016, dated 2020).

How the values were obtained:
NFκ-b = conditions: in-vitro conditions
rats = conditions: several in-vivo studies in rats

## Oc1ccc(C=Cc2cc(O)cc(O)c2)cc1 [resveratrol]
NFκ-b
  effect on nuclear translocation of NFκ-b: inhibits the nuclear translocation of NFκ-b
rats
  neuro-protective effect: neuro-protective effect
